# Test results published in patent publication EP3153515A1, “COMPOUNDS FOR INHIBITING HEPATITIS C VIRUS, PHARMACEUTICAL COMPOSITIONS AND USES THEREOF” (priority 2014, dated 2015).
# System: HCV NS5A replicon GT-1a
# Test: HCV NS5A replicon anti-viral activity (EC50), dual-reporter Renilla luciferase, GT-1a
# Type: cell-based
# Conditions: Hepatitis C virus, GT1A; GT-1a replicon; read-out: NS5A Inhibitory Activity (EC50 of GT-1a subtype inhibition)
# Text: The autonomous replication level of HCV in liver cells in vitro is very low, and the only animal that can be infected by HCV is chimpanzee, therefore there is no appropriate animal model currently available for preclinical pharmacodynamic study. Some researchers have transplanted human liver tissue infected with HCV in vitro into immune deficient mice to establish an in vivo mice model, but these mice are hard to raise and the model is unstable and short of normal immunologic reaction. Moreover, the model has significant difference with the pathogenic process of hepatitis C, therefore, it has not been used for animal model to assess the action of anti-HCV medicine yet. The progress of the development of anti-viral drugs for the treatment of HCV infection had been very slow because the pathogenic mechanism and life cycle of HCV were unclear before 1999 due to the lack of cell culture system for effective multiplication of HCV. But researchers managed to achieve a breakthrough in 1999 after numerous attempts. An effective cell culture model-replicon system in which HCV is capable of autonomous replication in transfected human hepatic carcinoma cell line Huh-7 had been established in that year on the basis of subgenomic HCV RNA built with genetic engineering.
# The above-mentioned cell culture model-replicon system which has been widely accepted in the industry is used in this invention for ex vivo experiments and subsequent assessment of drugs based on the experiment results.
# The therapeutic effect of the compounds of this invention on HCV infection can be preliminarily assessed through the following preclinical in vitro inhibitory action test and can be further confirmed in clinical trials. Other methods used in the invention are also quite familiar to professionals in this field with ordinary technical knowledge. Method for testing the anti-viral activity(EC50) in HCV NS5A replicon system: • The viral replication level in infected cells was determined by testing Renilla luciferase with the newly established dual-reporter gene replicon system. There was a good linear relation between the expression level of the reporter gene and the HCV RNA replication level and viral protein expression level. The anti-viral activity was determined for 3 replicates in 3 replicate cells at five(5) 1:2 diluted concentration gradients, with 1 to 2 positive controls. The EC50 of the compounds was calculated in the end.
# The compounds of the invention, or their stereoisomers, tautomers, esterified or amidated prodrugs, or pharmaceutically acceptable salts and mixtures have been subjected to test to determined their therapeutic effects in the treatment of HCV infection. […] Moreover, the results of 6a-6ep(Ia), 6fa-6gq(Ib) and reference compounds Ref-1(BMS-790052), Ref-2(GS5885), Ref-3 in HCV-NS5 inhibition test reveal that the cyclopentanyl/hexamethyleneamino radical containing linear polypeptide compounds 6a-6ep, 6fa-6gq and reference compounds Ref-1, Ref-2, Ref-3 have good HCV inhibitory results. […] The replicons GT-1a, GT-lb, GT-2a, GT-3a, GT-4a, GT-5a and GT-6a used for the test are routine replicons commercially available in this field. Table 1: HCV NS5A replicon inhibitory activity test results of compounds (6a-6gq) of the invention
row,SMILES,EC50 [nM]
1,COC(=O)N[C@H](C(=O)N1CCC[C@H]1c1ncc(-c2ccc(-c3ccc(-c4cnc([C@@H]5C=CCN5C(=O)[C@@H](NC(=O)N(C)C)C(C)C)[nH]4)cc3)cc2)[nH]1)C(C)C [6ci],0.001 to 0.999
2,CC(C)(C)OC(=O)N[C@H](C(=O)N1CC=C[C@H]1c1ncc(-c2ccc(-c3ccc(-c4c[nH]c([C@@H]5CCCN5C(=O)[C@@H](NC(=O)OC(C)(C)C)C(C)(C)C)n4)cc3)cc2)[nH]1)C(C)(C)C [6bb],> 50
3,COC(=O)N[C@H](C(=O)N1CCC[C@H]1c1nc(-c2ccc(-c3ccc(-c4cnc([C@@H]5C=CCN5C(=O)[C@@H](NC(=O)OC(C)(C)C)C(C)C)[nH]4)cc3)cc2)c[nH]1)C(C)C [6bc],1 to 49.9
4,COC(=O)N[C@H](C(=O)N1CCC[C@H]1c1ncc(-c2cc3oc(-c4ccc(-c5cnc([C@@H]6C=CCN6C(=O)[C@H](NC(=O)OC)c6ccccc6)[nH]5)cc4)cc3s2)[nH]1)C(C)C [6fp],0.001 to 0.999
5,COC(=O)NC(C(=O)N1CCC[C@H]1c1ncc(-c2cc3sc(-c4ccc(-c5cnc([C@@H]6CN(C(=O)N7Cc8cc9c(cc8C7)OCO9)CN6C(=O)[C@@H](NC(=O)OC)C(C)C)[nH]5)cc4)cc3s2)[nH]1)c1ccccc1 (stereo partly shown) [6bw],0.001 to 0.999
6,COC(=O)NC(C(=O)N1CC=C[C@H]1c1nc(-c2ccc(-c3cc4sc(-c5c[nH]c([C@@H]6C=CCN6C(=O)C(NC(=O)OC)c6ccccc6)n5)cc4s3)cc2)c[nH]1)c1ccccc1 (stereo partly shown) [6cd],> 50
7,COC(=O)N[C@H](C(=O)N1CC=C[C@H]1c1ncc(-c2ccc(-c3cc4sc(-c5cnc([C@@H]6CCCN6C(=O)[C@H](NC(=O)OC)c6ccccc6)[nH]5)cc4o3)cc2)[nH]1)C(C)C [6fq],0.001 to 0.999
8,COC(=O)N[C@H](C(=O)N1CC=C[C@H]1c1nc(-c2ccc(-c3ccc(-c4c[nH]c([C@@H]5COCCN5C(=O)[C@@H](NC(=O)OC)C(C)C)n4)cc3)cc2)c[nH]1)C(C)C [6bm],0.001 to 0.999
9,COC(=O)NC(C(=O)N1CCC[C@H]1c1nc(-c2ccc(-c3ccc(-c4c[nH]c([C@@H]5C=CCN5C(=O)[C@@H](NC(=O)OC)C(C)C)n4)cc3)cc2)c[nH]1)c1ccccc1 (stereo partly shown) [6by],0.001 to 0.999
10,CC(C)[C@H](NC(=O)OC1CCCC1)C(=O)N1CC=C[C@H]1c1ncc(-c2ccc(-c3ccc(-c4c[nH]c([C@@H]5CCCN5C(=O)[C@@H](NC(=O)OC5CCCC5)C(C)C)n4)cc3)cc2)[nH]1 [6bg],> 50
11,COC(=O)N[C@H](C(=O)N1CC=C[C@H]1c1ncc(-c2ccc(-c3ccc4[nH]c([C@@H]5CC6(CC6)CN5C(=O)[C@@H](NC(=O)OC)C(C)C)nc4c3)cc2)[nH]1)C(C)C [6eb],0.001 to 0.999
12,COC(=O)N[C@H](C(=O)N1CCC[C@H]1c1ncc(-c2ccc(-c3ccc(-c4cnc([C@@H]5C=CCN5C(=O)[C@@H](NC(=O)OC)C5CCCC5)[nH]4)cc3)cc2)[nH]1)C(C)C [6dh],0.001 to 0.999
13,COC(=O)N[C@H](C(=O)N1CC=C[C@H]1c1ncc(-c2ccc(-c3ccc(-c4cnc([C@@H]5CC(O)CN5C(=O)[C@@H](NC(=O)OC)C(C)C)[nH]4)cc3)cc2)[nH]1)C(C)C (stereo partly shown) [6dq],0.001 to 0.999
14,COC(=O)N[C@H](C(=O)N1CCCC[C@H]1c1nc(-c2ccc(-c3ccc(-c4c[nH]c([C@@H]5COCCN5C(=O)[C@@H](NC(=O)OC)C(C)C)n4)cc3)cc2)c[nH]1)C(C)C [6aj],0.001 to 0.999
15,COC(=O)N[C@H](C(=O)N1CC=C[C@H]1c1nc2ccc(-c3csc4c(-c5cnc([C@@H]6CCCN6C(=O)[C@H](NC(=O)OC)c6ccccc6)[nH]5)csc34)cc2[nH]1)C(C)C [6gn],0.001 to 0.999
16,COC(=O)N[C@H](C(=O)N1CC=C[C@H]1c1nc2ccc(-c3csc4c(-c5ccc(-c6cnc([C@@H]7CCCN7C(=O)[C@@H](NC(=O)OC)C(C)C)[nH]6)cc5)csc34)cc2[nH]1)C(C)C [6fz],0.001 to 0.999
17,COC(=O)N[C@H](C(=O)N1CC=C[C@H]1c1ncc(-c2ccc(-c3ccc(-c4cnc([C@@H]5CN(C(=O)OC(C)C)CN5C(=O)[C@@H](NC(=O)OC)C(C)C)[nH]4)cc3)cc2)[nH]1)C(C)C [6dc],0.001 to 0.999

# Same assay, conditions: Hepatitis C virus, genotype 1a / genotype 6a, read-out: Inhibitory activity against various HCV-NS5A subtypes(EC50, GT-1a to GT-6a) GT-1a
row,SMILES,EC50 [nM]
1,COC(=O)N[C@H](C(=O)N1CC=C[C@H]1c1nc2ccc(-c3csc4c(-c5ccc(-c6cnc([C@@H]7CCCN7C(=O)[C@@H](NC(=O)OC)C(C)C)[nH]6)cc5)csc34)cc2[nH]1)C(C)C [6fz],0.007

# Same assay, conditions: comparison drawn from Table 2
row,SMILES,"inhibitory activity compared with Ref-1(BMS-790052), Ref-2(GS5885), Ref-3 and Ref-4 (in words)"
1,COC(=O)N[C@H](C(=O)N1CC=C[C@H]1c1nc2ccc(-c3csc4c(-c5ccc(-c6cnc([C@@H]7CCCN7C(=O)[C@@H](NC(=O)OC)C(C)C)[nH]6)cc5)csc34)cc2[nH]1)C(C)C [6fz],significantly superior
